# Patent US20160159789A1, “SUBSTITUTED PYRAZOLOPYRIDINES” (BAYER PHARMA AKTIENGESELLSCHAFT, priority 2013, published 2016)
# Biological target: T1, human full-length MKNK1 (Homo sapiens, UniProt Q9BUB5, T385D)
# T1 construct: purchased Carna Biosciences 02-145; host or cells: insect cells (baculovirus expression system)
# Assay: MKNK1 kinase high ATP assay (TR-FRET)
# Type: biochemical
# Conditions: high ATP (2 mM final), 15 min preincubation with enzyme, GST-MKNK1 (T344D)
# Summary of the method: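 GST-tagged full-length human MKNK1 from insect cells, preincubated 15 min with compound at 22° C in HEPES pH 7.5/MgCl2/DTT buffer, then reacted 30 min with 2 mM ATP and 0.06 μM biotinylated peptide (final). Phosphopeptide detected by TR-FRET (anti-pS6 pSer236/Eu-ProteinG, streptavidin-XL665), 665/620 ratio normalised to no-enzyme and no-inhibitor controls.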
# T1 sequence (Q9BUB5 1-424 isoform Q9BUB5-2 T344D): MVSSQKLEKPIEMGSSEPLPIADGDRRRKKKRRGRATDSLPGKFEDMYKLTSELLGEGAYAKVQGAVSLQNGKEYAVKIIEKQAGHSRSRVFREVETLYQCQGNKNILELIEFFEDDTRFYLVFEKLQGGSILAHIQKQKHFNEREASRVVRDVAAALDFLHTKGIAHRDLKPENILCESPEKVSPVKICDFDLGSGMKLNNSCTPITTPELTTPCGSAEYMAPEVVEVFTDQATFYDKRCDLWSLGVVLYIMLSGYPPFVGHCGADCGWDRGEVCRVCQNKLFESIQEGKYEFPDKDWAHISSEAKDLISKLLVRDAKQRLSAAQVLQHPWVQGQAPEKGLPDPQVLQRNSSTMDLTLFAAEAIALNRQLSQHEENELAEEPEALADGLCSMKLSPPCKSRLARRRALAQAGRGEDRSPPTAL
row,IC50 [nM],Structure (SMILES)
1,23.1,"CN(C)CCN(C)C(=O)c1cc2c(Nc3cc4cn[nH]c4cn3)ncnc2[nH]1 [Example 77, N-[2-(Dimethylamino)ethyl]-N-methyl-4-(1H-pyrazolo[3,4-c]pyridin-5-ylamino)-7H-pyrrolo[2,3-d]pyrimidine-6-carboxamide]"
2,150,"COc1nc2[nH]ncc2cc1Nc1ncnc2sc(C(=O)N3CCCCC3)nc12 [Example 133, {7-[(6-Methoxy-1H-pyrazolo[3,4-b]pyridin-5-yl)amino][1,3]thiazolo[5,4-d]pyrimidin-2-yl}(piperidin-1-yl)methanone]"
3,47.6,"O=C([C@H]1CCc2c(sc3ncnc(Nc4cnc5[nH]ncc5c4)c23)C1)N1CCC1 [Example 97, Azetidin-1-yl[(7S)-4-(1H-pyrazolo[3,4-b]pyridin-5-ylamino)-5,6,7,8-tetrahydro[1]benzothieno[2,3-d]pyrimidin-7-yl]methanone]"
